Activity calls are given as the source filed them. No stated cut-off is given here; in the data, actives have a measured IC50 and inactives only a lower limit.

The assay deals with Envelope glycoprotein gp160 (Human immunodeficiency virus 1, UniProt Q6QLK5). The assay is described as follows: cell-free HIV fusion peptide-binding blockers – biochemical, uHTS, fluorescence dequenching, […] (AID 1986).
Sequence of Envelope glycoprotein gp160 (Q6QLK5 whole entry, the tested form may be a part): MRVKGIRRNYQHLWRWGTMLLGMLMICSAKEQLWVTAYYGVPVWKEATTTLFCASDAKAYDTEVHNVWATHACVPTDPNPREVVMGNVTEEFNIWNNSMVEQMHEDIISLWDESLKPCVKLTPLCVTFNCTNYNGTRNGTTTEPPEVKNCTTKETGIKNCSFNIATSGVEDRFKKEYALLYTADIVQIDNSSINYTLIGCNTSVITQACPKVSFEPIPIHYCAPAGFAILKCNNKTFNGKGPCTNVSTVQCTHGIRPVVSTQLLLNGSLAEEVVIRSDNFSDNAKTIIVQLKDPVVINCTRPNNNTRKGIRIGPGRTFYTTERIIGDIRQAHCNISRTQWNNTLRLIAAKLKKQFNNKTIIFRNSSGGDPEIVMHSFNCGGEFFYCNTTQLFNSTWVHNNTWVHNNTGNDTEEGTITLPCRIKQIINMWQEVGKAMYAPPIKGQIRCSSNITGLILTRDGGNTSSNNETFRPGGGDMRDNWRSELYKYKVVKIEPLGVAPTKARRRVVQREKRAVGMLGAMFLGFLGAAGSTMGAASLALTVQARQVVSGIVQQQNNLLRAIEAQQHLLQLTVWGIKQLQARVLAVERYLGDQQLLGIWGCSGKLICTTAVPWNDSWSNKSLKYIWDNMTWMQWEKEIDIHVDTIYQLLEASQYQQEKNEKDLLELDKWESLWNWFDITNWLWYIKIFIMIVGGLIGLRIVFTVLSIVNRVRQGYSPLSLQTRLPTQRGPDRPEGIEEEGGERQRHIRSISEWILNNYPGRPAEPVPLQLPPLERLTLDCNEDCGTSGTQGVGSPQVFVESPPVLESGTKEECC

Turning to `O=C(O)CSc1cc(C(=O)c2ccccc2O)cn2c(=O)c3c4c(sc3nc12)CCCC4`, the half-maximal inhibitory concentration (IC50) (in general, the concentration that inhibits the measured activity by half) was 20.7 µM (active).

For the origin of these results see ChEMBL document CHEMBL1201862, “PubChem BioAssay data set” (2004).
